In US20110151025A1, “Compositions Comprising N-Halogenated or N,N-Dihalogenated Amine for Treatment and Prophylaxis of Bronchopulmonary Infections” (NOVABAY PHARMACEUTICALS, INC., priority 2008, published 2011):
“Also recorded” adds a separate entry of the source. Like-named read-outs stand apart in the source and are kept apart here.

Columns and labels:
viral bronchitis = assay: Inhalation of 1% NCT by human volunteers suffering from viral bronchitis; format: in vivo
[1] = Intraperitoneal injection in Swiss mice; format: in vivo; conditions: 1% NCT
Source text: NCT is relatively safe and well-tolerated by mammals. For example, as a mild oxidant, tolerability of 1% aqueous NCT solution by human and animal tissue is good.

[2] = 1% aqueous NCT solution, rabbit eyes; cited from earlier work
[3] = 1% aqueous NCT solution, human eyes; cited from earlier work
[4] = system: infectious conjunctivitis; conditions: in vivo; cited from earlier work
external otitis = conditions: human external otitis; cited from earlier work
[5] = chronic rhinosinusitis, pilot study; cited from earlier work
[6] = purulent coated crural ulcers; cited from earlier work
[7] = system: omniresistant Pseudomonas aeruginosa; conditions: NCT irrigations, three patients; cited from earlier work
[8] = transtympanal injection of 0.1%, 1%, and 10% NCT, mice; cited from earlier work
Staphylococcus aureus = conditions: local administration, mouse model; cited from earlier work
all classes of pathogens = conditions: cited from earlier work
[9] = system: proinflammatory cytokines; conditions: cited from earlier work
[10] = Tolerability of inhaled haloamines in anesthetized pig model; conditions: for Arterial partial pressure of oxygen (PaO2) compared to controls: 4 inhalations of 5 mL, hourly over 4 hours; for Heart rate compared to controls: 4 hours measurement
Experimental: A study was designed to evaluate the tolerability of inhalative haloamines in a pig model. NCT was used as a representative haloamine. Anesthetized pigs inhaled test solutions of 1% NCT (n=7), 5% NCT (n=6), or 1% NCT plus 1% ammonium chloride (n=6), and 0.9% saline solution as a control (n=7), respectively. Applications were performed every hour over a four-hour time period, i.e., four inhalations in total, with 5 mL each.
Anesthetized pigs inhaled test solutions of 1% NCT (n=7), 5% NCT (n=6), or 1% NCT plus 1% ammonium chloride (n=6), and 0.9% saline solution as a control (n=7), respectively. Applications were performed every hour over a four-hour period, i.e., 4 inhalations in total, with 5 mL each.
Anesthetized pigs inhaled test solutions of 1% NCT (n=7), 5% NCT (n=6), or 1% NCT plus 1% ammonium chloride (n=6), and 0.9% saline solution as a control (n=7), respectively. Applications were performed every hour within four hours, i.e., 4 inhalations in total, with 5 mL each.
Anesthetized pigs inhaled test solutions of 1% NCT (n=7), 5% NCT (n=6), or 1% NCT plus 1% ammonium chloride (n=6), and 0.9% saline solution as a control (n=7), respectively. Applications were performed every hour over a four-hour period of time, i.e., 4 inhalations in total, with 5 mL each.

O=S(=O)(O)CCNCl [NCT, N-chlorotaurine]
Symptoms experienced by patients (viral bronchitis; 5 mL of 1% NCT inhaled for 10 minutes 3 times daily for three days): easier breathing, less coughing and less expectoration
Side effects (symptoms for bronchoconstriction, cough, dyspnea) (viral bronchitis; 5 mL of 1% NCT inhaled for 10 minutes 3 times daily for three days, three volunteers): no side effects detectable
Development of bronchitis after pharyngitis (viral bronchitis; one patient, NCT used as a treatment for pharyngitis): did not develop bronchitis
Tolerated intraperitoneal dose [1]: tolerated up to one mL 1% NCT
Tolerability [2]: good
Tolerability [3]: good
Efficacy in infectious conjunctivitis [4]: data indicating efficacy
Efficacy versus standard medication (external otitis): more effective than a standard medication
Tolerability [5]: good tolerability
Pain versus chloramine T [6]: significantly less pain
Toxicity versus chloramine T [6]: less toxic than chloramine T
Eradication of bacteria from the urinary bladder [7]: possible to eradicate bacteria
Damage of the inner ear [8]: did not cause damage of the inner ear
Inhibition of septic arthritis (Staphylococcus aureus): inhibited septic arthritis
Antimicrobial spectrum (all classes of pathogens): broad-spectrum antimicrobial activity
Induction of resistance of pathogens (all classes of pathogens): resistance of pathogens is not induced
Effect on proinflammatory cytokines [9]: down-regulate proinflammatory cytokines
Pulmonary artery pressure compared to saline group ([10]; 1% NCT): tended to result in even better values
Alveolo-arterial difference of oxygen partial pressure (AaDO2) ([10]; 1% NCT, 4-hour measurement, controls 33.7±9.03, p=0.016): 21.0±13.09
Arterial partial pressure of oxygen (PaO2) compared to controls ([10]; 1% NCT): No difference in PaO2 to controls
Heart rate compared to controls ([10]; 1% NCT): not significantly different from controls
Tolerability in the bronchopulmonary system upon inhalation ([10]; 1% NCT, conclusion from pig and volunteer results): very well tolerated
Pulmonary artery pressure compared to controls ([10]; 5% NCT): became higher than in the control group; also recorded: significantly higher values
Tolerability upon inhalation ([10]; 5% NCT): very well tolerated
Alveolo-arterial difference of oxygen partial pressure (AaDO2) compared to the controls ([10]; 5% NCT (p=0.99)): not different
Arterial partial pressure of oxygen (PaO2) compared to controls ([10]; 5% NCT): No difference in PaO2 to controls
Heart rate compared to controls ([10]; 5% NCT): not significantly different from controls
